From the supplement of paper PMC13386468
pIC50: −log10 of the molar value.

Assays:
Assay in all cases: IC50 for competition of protein binding to Kinobeads
Details in all cases: assay detail: Kinobeads competition in P. falciparum blood-stage lysate
Q8IEK1 = Q8IEK1 (UniProt O96935)
UniProt C0H4C5 = biological target: UniProt C0H4C5
UniProt C0H4L1 = biological target: UniProt C0H4L1
UniProt C0H4U4 = biological target: UniProt C0H4U4
UniProt C0H4V6 = biological target: UniProt C0H4V6
UniProt C0H4Z7 = biological target: UniProt C0H4Z7
UniProt C0H5C2 = biological target: UniProt C0H5C2
UniProt C0H5L6 = biological target: UniProt C0H5L6
UniProt C6KSQ1 = biological target: UniProt C6KSQ1
UniProt C6KT25 = biological target: UniProt C6KT25
UniProt C6KTA4 = biological target: UniProt C6KTA4
UniProt O77344 = biological target: UniProt O77344
UniProt O77396 = biological target: UniProt O77396
UniProt O96210 = biological target: UniProt O96210
UniProt O97266 = biological target: UniProt O97266
UniProt O97284 = biological target: UniProt O97284
UniProt Q8I0V3 = biological target: UniProt Q8I0V3
UniProt Q8I1T4 = biological target: UniProt Q8I1T4
UniProt Q8I206 = biological target: UniProt Q8I206
UniProt Q8I249 = biological target: UniProt Q8I249
UniProt Q8I2Q0 = biological target: UniProt Q8I2Q0
UniProt Q8I3K7 = biological target: UniProt Q8I3K7
UniProt Q8I3T8 = biological target: UniProt Q8I3T8
UniProt Q8I3Y8 = biological target: UniProt Q8I3Y8
UniProt Q8I479 = biological target: UniProt Q8I479
UniProt Q8I512 = biological target: UniProt Q8I512
UniProt Q8I574 = biological target: UniProt Q8I574
UniProt Q8I5V9 = biological target: UniProt Q8I5V9
UniProt Q8I6T2 = biological target: UniProt Q8I6T2
UniProt Q8IBI0 = biological target: UniProt Q8IBI0
UniProt Q8IBY4 = biological target: UniProt Q8IBY4
UniProt Q8ID85 = biological target: UniProt Q8ID85
UniProt Q8IDK7 = biological target: UniProt Q8IDK7
UniProt Q8IDM2 = biological target: UniProt Q8IDM2
UniProt Q8IDN9 = biological target: UniProt Q8IDN9
UniProt Q8IDS6 = biological target: UniProt Q8IDS6
UniProt Q8IDV1 = biological target: UniProt Q8IDV1
UniProt Q8IDX8 = biological target: UniProt Q8IDX8
UniProt Q8IE09 = biological target: UniProt Q8IE09
UniProt Q8IE85 = biological target: UniProt Q8IE85
UniProt Q8IFM9 = biological target: UniProt Q8IFM9
UniProt Q8IHT4 = biological target: UniProt Q8IHT4
UniProt Q8II60 = biological target: UniProt Q8II60
UniProt Q8II79 = biological target: UniProt Q8II79
UniProt Q8IIL7 = biological target: UniProt Q8IIL7
UniProt Q8IJC6 = biological target: UniProt Q8IJC6
UniProt Q8IK12 = biological target: UniProt Q8IK12
UniProt Q8IKS3 = biological target: UniProt Q8IKS3
UniProt Q8IL58 = biological target: UniProt Q8IL58
UniProt Q8IL71 = biological target: UniProt Q8IL71
UniProt Q8ILY8 = biological target: UniProt Q8ILY8
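Further: native unpurified kinases from lysate captured on beads bearing immobilized kinase inhibitors, with bead-bound kinases quantified by mass spectrometry across compound doses.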

Chain of UniProt C0H4V6 (C0H4V6 whole entry): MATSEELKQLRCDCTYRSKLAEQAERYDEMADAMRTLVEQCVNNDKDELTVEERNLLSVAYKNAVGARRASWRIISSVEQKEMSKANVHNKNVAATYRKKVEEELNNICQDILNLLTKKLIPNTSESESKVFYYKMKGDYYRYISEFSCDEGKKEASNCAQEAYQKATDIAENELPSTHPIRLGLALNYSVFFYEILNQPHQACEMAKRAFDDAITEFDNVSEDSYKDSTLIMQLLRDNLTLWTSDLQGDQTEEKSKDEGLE
Chain of Q8IEK1 (O96935 whole entry, one chain of several): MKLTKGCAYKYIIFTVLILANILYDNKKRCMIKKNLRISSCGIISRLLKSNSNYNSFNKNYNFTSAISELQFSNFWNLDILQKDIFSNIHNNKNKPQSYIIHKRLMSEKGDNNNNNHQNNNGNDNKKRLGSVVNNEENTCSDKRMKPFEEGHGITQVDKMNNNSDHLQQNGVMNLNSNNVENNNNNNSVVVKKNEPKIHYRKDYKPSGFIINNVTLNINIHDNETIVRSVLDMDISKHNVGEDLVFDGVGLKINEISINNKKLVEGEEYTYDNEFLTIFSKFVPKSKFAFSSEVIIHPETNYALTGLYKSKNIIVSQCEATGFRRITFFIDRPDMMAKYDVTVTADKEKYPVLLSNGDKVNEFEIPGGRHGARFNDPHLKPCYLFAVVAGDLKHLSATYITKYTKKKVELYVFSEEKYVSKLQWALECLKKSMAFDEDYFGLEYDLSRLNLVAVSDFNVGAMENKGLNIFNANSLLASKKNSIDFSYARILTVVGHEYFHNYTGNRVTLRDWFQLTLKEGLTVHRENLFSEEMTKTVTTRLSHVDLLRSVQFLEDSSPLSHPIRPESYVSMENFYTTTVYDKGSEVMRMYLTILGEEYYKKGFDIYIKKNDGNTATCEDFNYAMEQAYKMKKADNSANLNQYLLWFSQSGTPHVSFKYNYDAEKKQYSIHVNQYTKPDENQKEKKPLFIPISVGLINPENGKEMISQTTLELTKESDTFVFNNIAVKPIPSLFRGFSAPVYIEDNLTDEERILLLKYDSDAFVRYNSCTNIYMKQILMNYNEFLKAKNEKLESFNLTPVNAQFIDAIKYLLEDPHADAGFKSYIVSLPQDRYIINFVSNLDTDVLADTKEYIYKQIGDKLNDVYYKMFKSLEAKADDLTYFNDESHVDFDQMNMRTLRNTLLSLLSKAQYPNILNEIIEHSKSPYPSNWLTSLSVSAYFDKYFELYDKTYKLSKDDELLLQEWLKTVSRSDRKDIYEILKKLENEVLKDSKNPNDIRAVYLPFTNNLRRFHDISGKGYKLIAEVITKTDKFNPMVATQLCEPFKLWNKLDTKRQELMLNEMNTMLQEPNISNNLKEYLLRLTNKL
Chain of UniProt Q8I3Y8 (Q8I3Y8 whole entry): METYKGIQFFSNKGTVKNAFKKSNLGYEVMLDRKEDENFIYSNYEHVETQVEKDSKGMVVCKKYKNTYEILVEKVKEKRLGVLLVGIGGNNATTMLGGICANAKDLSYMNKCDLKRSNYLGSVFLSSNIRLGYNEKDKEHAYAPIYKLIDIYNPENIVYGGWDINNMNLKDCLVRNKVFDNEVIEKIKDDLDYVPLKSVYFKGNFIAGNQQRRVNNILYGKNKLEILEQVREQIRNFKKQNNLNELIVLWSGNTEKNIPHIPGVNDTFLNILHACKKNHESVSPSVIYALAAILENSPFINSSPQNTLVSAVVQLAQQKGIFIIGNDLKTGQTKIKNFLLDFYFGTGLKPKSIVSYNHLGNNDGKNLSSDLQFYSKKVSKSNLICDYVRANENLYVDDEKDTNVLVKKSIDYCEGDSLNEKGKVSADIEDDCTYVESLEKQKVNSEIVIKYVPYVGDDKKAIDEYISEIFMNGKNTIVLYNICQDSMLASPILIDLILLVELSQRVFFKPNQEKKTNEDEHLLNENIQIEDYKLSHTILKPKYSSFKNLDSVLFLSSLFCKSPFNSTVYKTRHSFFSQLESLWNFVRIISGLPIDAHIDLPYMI

O=c1[nH]c2ccc(Cl)cc2c(NC2CN3CCC2CC3)c1-c1nc2ccccc2[nH]1 (stereo unspecified) [CHIR-124]
pIC50 (Q8IEK1): < 4.70
pIC50 (UniProt C0H4C5): < 4.70
pIC50 (UniProt C0H4L1): < 4.70
pIC50 (UniProt C0H4U4): < 4.70
pIC50 (UniProt C0H4V6): < 4.70
pIC50 (UniProt C0H4Z7): < 4.70
pIC50 (UniProt C0H5C2): < 4.70
pIC50 (UniProt C0H5L6): < 4.70
pIC50 (UniProt C6KSQ1): 6.52
pIC50 (UniProt C6KT25): < 4.70
pIC50 (UniProt C6KTA4): < 4.70
pIC50 (UniProt O77344): 5.53
pIC50 (UniProt O77396): < 4.70
pIC50 (UniProt O96210): < 4.70
pIC50 (UniProt O97266): < 4.70
pIC50 (UniProt O97284): < 4.70
pIC50 (UniProt Q8I0V3): < 4.70
pIC50 (UniProt Q8I1T4): < 4.70
pIC50 (UniProt Q8I206): < 4.70
pIC50 (UniProt Q8I249): < 4.70
pIC50 (UniProt Q8I2Q0): < 4.70
pIC50 (UniProt Q8I3K7): < 4.70
pIC50 (UniProt Q8I3T8): < 4.70
pIC50 (UniProt Q8I3Y8): < 4.70
pIC50 (UniProt Q8I479): < 4.70
pIC50 (UniProt Q8I512): < 4.70
pIC50 (UniProt Q8I574): < 4.70
pIC50 (UniProt Q8I5V9): < 4.70
pIC50 (UniProt Q8I6T2): < 4.70
pIC50 (UniProt Q8IBI0): < 4.70
pIC50 (UniProt Q8IBY4): < 4.70
pIC50 (UniProt Q8ID85): < 4.70
pIC50 (UniProt Q8IDK7): < 4.70
pIC50 (UniProt Q8IDM2): < 4.70
pIC50 (UniProt Q8IDN9): < 4.70
pIC50 (UniProt Q8IDS6): < 4.70
pIC50 (UniProt Q8IDV1): < 4.70
pIC50 (UniProt Q8IDX8): < 4.70
pIC50 (UniProt Q8IE09): < 4.70
pIC50 (UniProt Q8IE85): < 4.70
pIC50 (UniProt Q8IFM9): < 4.70
pIC50 (UniProt Q8IHT4): < 4.70
pIC50 (UniProt Q8II60): < 4.70
pIC50 (UniProt Q8II79): < 4.70
pIC50 (UniProt Q8IIL7): < 4.70
pIC50 (UniProt Q8IJC6): < 4.70
pIC50 (UniProt Q8IK12): < 4.70
pIC50 (UniProt Q8IKS3): < 4.70
pIC50 (UniProt Q8IL58): < 4.70
pIC50 (UniProt Q8IL71): < 4.70
pIC50 (UniProt Q8ILY8): < 4.70
